Data taken from US20150336889A1, “INDOLE DERIVATIVES, PHARMACEUTICAL COMPOSITIONS CONTAINING SUCH INDOLES AND THEIR USE AS DNA METHYLATION MODULATORS” (IKERCHEM, S.L., priority 2012, published 2015).
Where a name gives a salt, the structure may show the parent alone.

Experiments:
HCT-116 = assay: Cancer cell growth inhibition, HCT-116; format: cell-based; settings: Homo sapiens; Colorectal, HCT-116, cell viability, 72 h
Description: (§1) Cell culture-based assays were used to evaluate the ability of compounds of the invention to inhibit cancer cell growth inhibition.
(§2) Cells were obtained from the American Type Culture Collection (ATCC) and European Collection of Cell Cultures (ECACC).
(§3) Cells were thawed in their appropriate media plus supplements (see table below). Cells were passaged at confluence by washing once in HBSS cation-free followed by a 3 minutes incubation with trypsin ([0.5 μg/ml]/EDTA [0.2 μg/ml]) (Gibco-BRL, 15400054) solution in HBSS at 37° C. (except non-adherent cell lines), and transferred to their appropriate media plus supplements. Prior to seeding at defined cell concentration, cells were recovered in medium, centrifuged and taken up in medium, and counted.
(§4) Cells were plated at 3000/5000/10000 cells/well in 100 μl media in tissue culture 96 well plates (Cultek). After 24 h, media was supplemented by 100 μl/well of diluted IPDNs at 100 μM.
(§5) The Hexosaminidase assay was used for the adherent cell lines, whereas the AlamarBlue® assay was used for the non-adherent cell lines.
(§6) Dose-response curves were generated by serial dilutions (1:1) of the compounds. […] Reagent blanks, containing media plus colorimetric reagent without cells were run on each plate. Blank values were subtracted from test values and were routinely 5-10% of uninhibited control values. Plates were incubated 72 h, and living cell number was determined by AlamarBlue® and Hexosaminidase test. The advantages of using those assays are that both can be done in the same microwell plate. AlamarBlue® assay: plates were incubated 72 h and living cell number was determined by AlamarBlue (Biosource DAL1100). After 4 h incubation at 37° C., relative fluorescent intensity, which correlates with the number of living cells, was read in a Cytofluor plate reader (Millipore) at 535/590 nm (Excitation/emission). The hexosaminidase activity was measured according to the following protocol: the media was removed and cells were washed once with PBS.
(§7) Data analysis was done by calculating the percentage of cell viability normalized in front of negative control values, which were considered as a 100%. The curve was adjusted using a sigmoidal dose-response (variable slope) equation and EC50 values were obtained from the equation
(§8) where, X is the logarithm of concentration. Y is the response. Bottom is the Y value at the bottom plateau Top is the Y value at the top plateau LogEC50 is the X value when the response is halfway between Bottom and Top. With different kinds of variables, this variable is sometimes called ED50 (effective dose, 50%), or IC50 (inhibitory concentration, 50%, used when the curve goes downhill).

SK-HEP-1 = assay: Cancer cell growth inhibition, SK-HEP-1; format: cell-based; settings: Homo sapiens, SK-HEP1; Liver, SK-HEP-1, cell viability, 72 h
Description: as §1, §2, §3, §4, §5
as §6, with “PBS. […]” for “PBS.”

MCF-7 = assay: Cancer cell growth inhibition, MCF-7; format: cell-based; settings: Homo sapiens, MCF7; Breast, MCF-7, cell viability, 72 h
Description: as §1, §2, §3, §4, §5, §6, §7, §8

NCI-H1975 = assay: Cancer cell growth inhibition, NCI-H1975; format: cell-based; settings: Homo sapiens; Lung, NCI-H1975, cell viability, 72 h
Description: as §1, §2, §3, §4, §5, §6, §7, §8

Jurkat = assay: Cancer cell growth inhibition, Jurkat; format: cell-based; settings: Homo sapiens, Hematologic, cell viability, 72 h
Description: as §1, §2, §3, §4, §5, §6, §7, §8

MiaPaCa-2 = assay: Cancer cell growth inhibition, MiaPaCa-2; format: cell-based; settings: Homo sapiens, MIA PaCa-2; Pancreatic, MiaPaCa-2, cell viability, 72 h
Description: as §1, §2, §3, §4, §5, §6, §7, §8

T47D = assay: Cancer cell growth inhibition, T47D; format: cell-based; settings: Homo sapiens, Breast, cell viability, 72 h
Description: as §1, §2, §3, §4, §5, §6, §7, §8

U-87MG = assay: Cancer cell growth inhibition, U-87MG; format: cell-based; settings: Homo sapiens, Brain, cell viability, 72 h
Description: as §1, §2, §3, §4, §5, §6, §7, §8

Daoy = assay: Cancer cell growth inhibition, Daoy; format: cell-based; settings: Homo sapiens, Brain, cell viability, 72 h
Description: as §1, §2, §3, §4, §5, §6, §7, §8

CCFR-CEM = assay: Cancer cell growth inhibition, CCFR-CEM; format: cell-based; settings: Hematologic, cell viability, 72 h
Description: as §1, §2, §3, §4, §5, §6, §7, §8

MDA-MB-435 = assay: Cancer cell growth inhibition, MDA-MB-435; format: cell-based; settings: Homo sapiens; Melanoma, MDA-MB-435, cell viability, 72 h
Description: as §1, §2, §3, §4, §5, §6, §7, §8

A-431 = assay: Cancer cell growth inhibition, A-431; format: cell-based; settings: Homo sapiens; Epidermoid, A-431, cell viability, 72 h
Description: as §1, §2, §3, §4, §5, §6, §7, §8

NCI-H358 = assay: Cancer cell growth inhibition, NCI-H358; format: cell-based; settings: Homo sapiens; Lung, NCI-H358, cell viability, 72 h
Description: as §1, §2, §3, §4, §5, §6, §7, §8

RPMI-8226 = assay: Cancer cell growth inhibition, RPMI-8226; format: cell-based; settings: Homo sapiens; Multiple Myelome, RPMI-8226, cell viability, 72 h
Description: as §1, §2, §3, §4, §5, §6, §7, §8

Human DNMT1 = target: T1, Human DNMT1 (Homo sapiens, UniProt P26358); assay: DNMT1 enzymatic activity inhibition, radioisotope-based 3H-SAM filter binding assay; format: biochemical; settings: 1 μM SAM, 25 nM DNMT1, 0.005 mg/ml Poly(dI-dC), 30° C. 1 hour, 10-dose
T1 construct: a-a 2-1632, with N-terminal GST tag; GST (N)
Description: The inhibition of the enzymatic activity of DNMT1 was tested using low volume radioisotope-based assay which uses tritium-labeled AdoMet (^3H-SAM) as a methyl donor. Inhibitors diluted in DMSO were added by using acoustic technology (Echo550, Labcyte Inc. Sunnyvale, Calif.) into enzyme/substrate mixture in nano-liter range. The reaction was initiated by the addition of ^3H-SAM, and incubated at 30° C. for 1 hour. Total final methylations on the substrate poly(dI-dC) were detected by a filter binding approach. Data analysis was performed using GraphPad Prism software (La Jolla, Calif.) for IC50 curve fits.

T1 sequence (P26358 2-1632 isoform P26358-2): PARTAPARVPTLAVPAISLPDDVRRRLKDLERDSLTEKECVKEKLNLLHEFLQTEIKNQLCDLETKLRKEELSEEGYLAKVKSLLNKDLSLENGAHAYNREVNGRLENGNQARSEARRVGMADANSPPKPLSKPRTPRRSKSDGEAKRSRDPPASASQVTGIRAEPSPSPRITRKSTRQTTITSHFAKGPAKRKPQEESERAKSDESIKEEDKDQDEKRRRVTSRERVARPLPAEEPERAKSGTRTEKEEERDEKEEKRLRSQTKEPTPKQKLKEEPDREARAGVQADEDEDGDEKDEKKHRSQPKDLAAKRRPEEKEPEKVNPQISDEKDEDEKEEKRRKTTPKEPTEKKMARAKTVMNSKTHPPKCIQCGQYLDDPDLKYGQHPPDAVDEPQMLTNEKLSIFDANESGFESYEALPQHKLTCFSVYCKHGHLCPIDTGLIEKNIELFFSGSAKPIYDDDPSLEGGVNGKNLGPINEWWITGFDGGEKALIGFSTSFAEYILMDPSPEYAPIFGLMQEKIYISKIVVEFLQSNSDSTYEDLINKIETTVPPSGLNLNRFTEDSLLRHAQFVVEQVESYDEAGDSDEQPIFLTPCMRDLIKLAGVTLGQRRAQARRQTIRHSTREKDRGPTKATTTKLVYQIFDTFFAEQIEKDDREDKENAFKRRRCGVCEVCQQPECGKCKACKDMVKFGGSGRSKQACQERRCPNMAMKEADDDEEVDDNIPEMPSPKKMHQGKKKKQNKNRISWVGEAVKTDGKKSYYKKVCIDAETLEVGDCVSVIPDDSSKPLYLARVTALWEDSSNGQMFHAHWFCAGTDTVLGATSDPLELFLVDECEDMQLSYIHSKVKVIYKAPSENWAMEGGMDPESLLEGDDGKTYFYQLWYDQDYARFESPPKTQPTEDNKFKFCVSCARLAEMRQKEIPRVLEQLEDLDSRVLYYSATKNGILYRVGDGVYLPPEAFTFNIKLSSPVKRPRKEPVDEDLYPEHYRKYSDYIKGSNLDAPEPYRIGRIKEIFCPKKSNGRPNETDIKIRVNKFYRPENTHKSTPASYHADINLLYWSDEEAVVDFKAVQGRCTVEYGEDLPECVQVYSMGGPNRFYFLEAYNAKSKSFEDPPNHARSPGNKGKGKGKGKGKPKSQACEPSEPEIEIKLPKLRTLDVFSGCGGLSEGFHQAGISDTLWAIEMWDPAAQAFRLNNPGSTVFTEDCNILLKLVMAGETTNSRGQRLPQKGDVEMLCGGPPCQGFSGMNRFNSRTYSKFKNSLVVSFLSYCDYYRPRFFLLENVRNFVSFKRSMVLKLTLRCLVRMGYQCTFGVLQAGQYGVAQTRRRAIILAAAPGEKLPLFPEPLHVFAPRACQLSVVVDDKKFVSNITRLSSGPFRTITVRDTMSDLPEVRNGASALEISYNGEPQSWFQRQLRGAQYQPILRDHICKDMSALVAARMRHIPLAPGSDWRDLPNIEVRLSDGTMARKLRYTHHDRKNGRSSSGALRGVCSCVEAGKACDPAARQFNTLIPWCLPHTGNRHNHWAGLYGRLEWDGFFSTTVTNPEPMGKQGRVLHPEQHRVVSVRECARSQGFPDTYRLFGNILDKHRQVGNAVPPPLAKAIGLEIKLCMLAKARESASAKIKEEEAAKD

Row | Compound | IC50 (Human DNMT1) [µM] | also measured
1 | COc1cc(OC)c2c(-c3ccc(OC(C)=O)c(OC(C)=O)c3)cn(CC(=O)c3ccc(OC(C)=O)c(OC(C)=O)c3)c2c1 [Example 30, 4-{1-[2-(3,4-diacetoxyphenyl)-2-oxoethyl]-4,6-dimethoxy-1H-indol-3-yl}-1,2-phenylene diacetate] |  | EC50 (HCT-116): 64 µM; EC50 (SK-HEP-1): 39 µM; EC50 (MCF-7): 88 µM; EC50 (NCI-H1975): 47 µM; EC50 (Jurkat): 49 µM; EC50 (MiaPaCa-2): 55 µM; EC50 (T47D): 47 µM; EC50 (U-87MG): 75 µM; EC50 (Daoy): 50 µM; EC50 (CCFR-CEM): 40 µM; EC50 (MDA-MB-435): 23 µM; EC50 (A-431): 88 µM; EC50 (NCI-H358): 53 µM; EC50 (RPMI-8226): 36 µM
2 | COc1cc(OC)c2c(-c3ccc(O)cc3)cn(C/C(=N\O)c3ccc(O)cc3)c2c1 [Example 22, (Z)-1-(4-hydroxyphenyl)-2-[3-(4-hydroxyphenyl)-4,6-dimethoxy-1H-indol-1-yl]ethanone oxime] | 22.5 | 
3 | COc1ccc(OC)c2c1c(-c1ccc(O)cc1)cn2CC(=O)c1ccc(O)cc1 [Example 13, 1-(4-hydroxyphenyl)-2-[3-(4-hydroxyphenyl)-4,7-dimethoxy-1H-indol-1-yl]ethanone] | 98.4 | 
4 | COc1cc(OC)c2c(-c3ccc(F)cc3)cn(CC(=O)c3ccc(F)cc3)c2c1 [Example 12, 1-(4-fluorophenyl)-2-[3-(4-fluorophenyl)-4,6-dimethoxy-1H-indol-1-yl]ethanone] | 104 | 
5 | COc1cc(OC)c2c(-c3ccc(O)cc3)cn(C/C(=N/O)c3ccc(O)cc3)c2c1 [Example 21, (E)-1-(4-Hydroxyphenyl)-2-[3-(4-hydroxyphenyl)-4,6-dimethoxy-1H-indol-1-yl]ethanone oxime] | 104 | 
6 | COc1cc(OC)c2c(-c3ccc(O)cc3O)cn(CC(=O)c3ccc(O)cc3O)c2c1 [Example 9, 1-(2,4-dihydroxyphenyl)-2-[3-(2,4-dihydroxyphenyl)-4,6-dimethoxy-1H-indol-1-yl]ethanone] | 181 | 
7 | COc1ccc2c(-c3ccccc3O)cn(CC(=O)c3ccccc3O)c2c1 [Example 3, 1-(2-hydroxyphenyl)-2-[3-(2-hydroxyphenyl)-6-methoxy-1H-indol-1-yl]ethanone] | 56.7 | 
8 | COc1ccc2c(-c3cccc(O)c3)cn(CC(=O)c3cccc(O)c3)c2c1 [Example 2, 1-(3-hydroxyphenyl)-2-[3-(3-hydroxyphenyl)-6-methoxy-1H-indol-1-yl]ethanone] | 30.6 | 
9 | COc1cc(OC)c2c(-c3cc(O)cc(O)c3)cn(CC(=O)c3cc(O)cc(O)c3)c2c1 [Example 10, 1-(3,5-dihydroxyphenyl)-2-[3-(3,5-dihydroxyphenyl)-4,6-dimethoxy-1H-indol-1-yl]ethanone] | 44.6 | 
10 | COc1cccc(N(CC(=O)c2ccc(O)c(O)c2O)CC(=O)c2ccc(O)c(O)c2O)c1 [Example 23, 2,2′-[(3-methoxyphenyl)azanediyl]-bis[1-(2,3,4-trihydroxyphenyl)ethanone]] | 27.4 | 
11 | COc1cc(OC)c2c(-c3ccccc3O)cn(CC(=O)c3ccccc3O)c2c1 [Example 7, 1-(2-hydroxyphenyl)-2-[3-(2-hydroxyphenyl)-4,6-dimethoxy-1H-indol-1-yl]ethanone] | 32.9 | 
12 | COc1cc(OC)cc(N(CC(=O)c2ccc(O)c(O)c2O)CC(=O)c2ccc(O)c(O)c2O)c1 [Example 24, 2,2′-[(3,5-dimethoxyphenyl)azanediyl]-bis[1-(2,3,4-trihydroxyphenyl)ethanone]] | 15.6 | 
13 | COc1ccc2c(-c3ccc(O)c(O)c3O)cn(CC(=O)c3ccc(O)c(O)c3O)c2c1 [Example 5, 2-[6-methoxy-3-(2,3,4-trihydroxyphenyl)-1H-indol-1-yl]-1-(2,3,4-trihydroxyphenyl) ethanone] | 3.53 | 

Second part, led by results:

Row | IC50 (Human DNMT1) [µM] | Compound | also measured
14 | 40.4 | COc1cc(OC)c2c(-c3ccc(O)cc3)cn(CC(=O)c3ccc(O)cc3)c2c1 [Example 26, potassium phenoxide salt of 1-(4-hydroxyphenyl)-2-[3-(4-hydroxyphenyl)-4,6-dimethoxy-1H-indol-1-yl]ethanone] | 
15 | 43.3 | COc1cc2c(-c3ccc(O)cc3)cn(CC(=O)c3ccc(O)cc3)c2cc1OC [Example 14, 1-(4-hydroxyphenyl)-2-[3-(4-hydroxyphenyl)-5,6-dimethoxy-1H-indol-1-yl]ethanone] | 
16 | 576 | COc1cc2c(cc1O)c(-c1ccc(O)cc1)cn2CC(=O)c1ccc(O)cc1 [Example 15, 2-[5-hydroxy-3-(4-hydroxyphenyl)-6-methoxy-1H-indol-1-yl]-1-(4-hydroxyphenyl)ethanone] | 
17 | 19.5 | COc1ccc2c(-c3ccc(O)cc3)cn(CC(=O)c3ccc(O)cc3)c2c1 [Example 25, potassium phenoxide salt of 1-(4-hydroxyphenyl)-2-[3-(4-hydroxyphenyl)-6-methoxy-1H-indol-1-yl]ethanone] | 
18 | 241 | O=C(Cn1cc(-c2ccc(O)cc2)c2ccccc21)c1ccc(O)cc1 [Example 20, 1-(4-hydroxyphenyl)-2-[3-(4-hydroxyphenyl)-1H-indol-1-yl]ethanone] | 
19 | 59.1 | O=C(Cn1cc(-c2ccc(O)cc2)c2cc(F)ccc21)c1ccc(O)cc1 [Example 19, 2-[5-fluoro-3-(4-hydroxyphenyl)-1H-indol-1-yl]-1-(4-hydroxyphenyl) ethanone] | 
20 | 50.9 | O=C(Cn1cc(-c2ccc(O)cc2)c2ccc(O)cc21)c1ccc(O)cc1 [Example 17, 2-[6-hydroxy-3-(4-hydroxyphenyl)-1H-indol-1-yl]-1-(4-hydroxyphenyl) ethanone] | 
21 | 32.9 | O=C(Cn1cc(-c2ccc(O)cc2)c2cc(O)ccc21)c1ccc(O)cc1 [Example 18, 2-[5-hydroxy-3-(4-hydroxyphenyl)-1H-indol-1-yl]-1-(4-hydroxyphenyl) ethanone] | 
22 | 46.8 | COc1cc(OC)c2c(-c3ccc(O)cc3)cn(CC(=O)c3ccc(O)cc3)c2c1 [Example 27, calcium phenoxide salt of 1-(4-hydroxyphenyl)-2-[3-(4-hydroxyphenyl)-4,6-dimethoxy-1H-indol-1-yl]ethanone] | 
23 | 73.1 | COc1ccc2c(-c3ccc(O)cc3)cn(CC(=O)c3ccc(O)cc3)c2c1 [Example 1, 1-(4-hydroxyphenyl)-2-[3-(4-hydroxyphenyl)-6-methoxy-1H-indol-1-yl]ethanone] | 
